Measurements taken from patent publication US20220288051A1, “METHODS FOR TREATING CANCER USING SERIAL ADMINISTRATION OF E3 UBIQUITIN LIGASE DEGRADERS” (Dana-Farber Cancer Institute, Inc., priority 2019, published 2022).
“Also recorded” adds a separate entry of the source.

Tests used:
[1] = system: CDK9; assay: Immunoblotting of degronimid-treated MM.1S cells: CDK9; assay type: cell-based, human; conditions: 0.01-1 μM, 4 h
Protocol: (§1) MM.1S cells were seeded in 6-well plates at 3×10^6 cells/well (˜24 h prior to addition of drug). […] Cell pellets were thawed on ice, lysed using RIPA buffer (ThermoFisher) with protease/phosphatase inhibitor cocktail (Cell Signal Technology, Danvers, Mass.) by incubating on ice 30 min. The lysates were clarified by spinning at 10,000 g for 10 min at 4° C. and the concentration of the lysate was determined using BCA protocol (ThermoFisher). Samples were prepared for Western blot using LDS sample buffer (NuPage, Invitrogen, Carlsbad, Calif., USA) with sample reducing agent (NuPage, Invitrogen) and heated to 95° C. for 5 min. Samples were loaded (20 ug/sample) into Tris-acetate or Bis-Tris gels (NuPage, Invitrogen) and run as per kit instructions using appropriate running buffers. Gels were transferred as described (Matthews et al., 2015) onto PVDF membrane using SDS-based transfer buffer (NuPage, Invitrogen). Membranes were blocked (5% skim milk; or 5% bovine serum albumin in TBS-T) for at least 30 min then probed with primary antibodies overnight (4° C.). […] Each protein of interest (BRD2, BRD3, BRD4, c-myc and CDK9) was assessed in a separate gel and corresponding membrane (which was simultaneously incubated with antibodies for both the target protein of interest and GAPDH, to provide a loading control within the same blot). […]

[2] = molecular target: T1, BRD2 (Homo sapiens, UniProt P25440); assay: Immunoblotting of degronimid-treated MM.1S cells: BRD2; assay type: cell-based; conditions: 0.01-1 μM, 4 h
T1 construct: endogenous in cells; host or cells: MM.1S
Protocol: as §1

[3] = system: c-Myc; assay: Immunoblotting of degronimid-treated MM.1S cells: c-Myc; assay type: cell-based, human; conditions: 0.01-1 μM, 4 h
Protocol: as §1

[4] = system: MM.1S cells; assay: Assessment of apoptosis, Annexin V/PI flow cytometry; assay type: cell-based, human
Protocol: For the assessment of apoptosis, MM.1S cells were seeded into 6-well plates (2×10^6 cells/well) in medium supplemented with 10% FBS and penicillin/streptomycin (3.2 mL) 24 h prior to treatment. Cells were treated with dBET6, JQ1, or vehicle and harvested prior to staining with Annexin V-FITC and PI (BD, Bedford, Mass.). Apoptosis was assessed immediately using flow cytometry (LSR II, BD, Bedford, Mass.)

[5] = system: MM.1S cells; assay: RNA-sequencing of treated MM.1S cells; assay type: cell-based, human
[6] = system: human MM.1S cells; assay: Subcutaneous MM xenograft model; assay type: in vivo, NSG mice
Protocol: i. Subcutaneous MM xenograft model: Luciferase-positive MM.1S cells (10×106 Luc-GFP-MM.1S in matrigel) were transplanted into the right flank of NSG mice (100 μL). […] Treatments were carried out daily for 8 days and tumor size assessed daily using calipers. Mice were culled when tumors reached 2000 mm3 or when moribund.

[7] = system: human MM.1S cells; assay: Xenograft model of diffuse MM lesions; assay type: in vivo, NSG mice; conditions: 20 mg/kg, QD, 12 days
Protocol: ii. Xenograft model of diffuse MM lesions: Luciferase-positive MM.1S cells (1×106 Luc-GFP-MM.1S) were injected via the tail vein (IV) into NSG mice. […] BLI was undertaken weekly and mice were euthanized when moribund or upon signs of hind-limb paralysis.

[8] = system: MM.1S cells; assay: CTG viability of CRISPR-edited MM.1S pools tolerant to bortezomib or JQ1; assay type: cell-based, human; conditions: vs treatment-naive cells with the same sgRNA library
Protocol: Cell viability and growth of human MM cell lines were assessed using CellTitre-Glo (CTG) assay (Promega, Madison, Wis.) per kit instructions, or CS-BLI as described (Delmore et al., 2011). Briefly, cells were seeded (5×10^3 cells/well) into 96- or 384-well opaque plates, in supplemented media (40 or 50 uL) and incubated for 24 h prior to addition of drug. For co-culture experiments, HS27A cells were pre-seeded (5×10^3 cells/well) into each well in media prior (24 h) to the addition of MM cells. At each time point (24 h, 48 h, and/or 72 h) CTG reagent (10% volume) was added to each well, and plates were read using a microplate reader (BioTek Synergy 2, BioTek, Winooski, Va.).
iii. […] Following treatments, all cells were serially cultured without drug and allowed to regrow for as long as required to enable reseeding (60×10^6 cells per flask, 100 mL) and retreatment with individual drugs while maintaining ˜1000× coverage throughout. Concomitant with retreatment, remaining cells were frozen (−80° C.; 20% FBS/DMSO) for later analysis or assessed for drug resistance/sensitivity using CTG assays. Between treatments, and in order to maintain the health of cultures, dead cells were periodically removed using Ficoll centrifugation (1,500 rpm for 10-20 min). For all CRISPR drug treatment experiments, aliquots of MM.1S-Cas9+ cells transduced with the GeCKO(Sanjana et al., 2014; Shalem et al., 2014) or Brunello (Doench et al., 2016) sgRNA libraries were frozen immediately prior to experimentation to determine the baseline distribution of sgRNAs in the cell population.

[9] = system: patient-derived MM cells; assay: Ex vivo treatment of patient-derived CD138+ tumor cells, CTG; assay type: cell-based, human; conditions: variable prior therapies
Protocol: Bone marrow aspirates (1-4 mL) from individuals with MM (newly diagnosed, smoldering, relapsed/refractory, maintenance treatment) or MGUS were collected after patients provided informed consent and based on tissue collection protocol approved by the Dana-Farber Cancer Institute Institutional Review Board. Samples were processed for separation of CD138+ plasma cells, using CD138-positive selection beads, and immunomagnetic separation, as per kit instructions (EasySep, StemCell, Cambridge, Mass.). Patient-derived tumor cells were cultured in RPMI 1640 medium supplemented with L-glutamine (Life Technologies, Carlsbad, Calif., USA), FBS (10%) (Gemini Bioproducts, Woodland, Calif.), 20 I.U./mL penicillin and 20 μg/mL streptomycin (Fisher Scientific, Springfield, N.J., USA) and hIL-6 (Thermo Fisher Scientific, Waltham, Mass., USA […]).
Samples were processed for separation of CD138+ plasma cells, using CD138-positive selection beads, and immunomagnetic separation, as per kit instructions (EasySep, StemCell, Cambridge, Mass.). […] Viability was assessed using CTG, as described (24 h, 48 h, 72 h) and each treatment was repeated up to 3 times (n=3 biological replicates).

T1 sequence (P25440 whole entry): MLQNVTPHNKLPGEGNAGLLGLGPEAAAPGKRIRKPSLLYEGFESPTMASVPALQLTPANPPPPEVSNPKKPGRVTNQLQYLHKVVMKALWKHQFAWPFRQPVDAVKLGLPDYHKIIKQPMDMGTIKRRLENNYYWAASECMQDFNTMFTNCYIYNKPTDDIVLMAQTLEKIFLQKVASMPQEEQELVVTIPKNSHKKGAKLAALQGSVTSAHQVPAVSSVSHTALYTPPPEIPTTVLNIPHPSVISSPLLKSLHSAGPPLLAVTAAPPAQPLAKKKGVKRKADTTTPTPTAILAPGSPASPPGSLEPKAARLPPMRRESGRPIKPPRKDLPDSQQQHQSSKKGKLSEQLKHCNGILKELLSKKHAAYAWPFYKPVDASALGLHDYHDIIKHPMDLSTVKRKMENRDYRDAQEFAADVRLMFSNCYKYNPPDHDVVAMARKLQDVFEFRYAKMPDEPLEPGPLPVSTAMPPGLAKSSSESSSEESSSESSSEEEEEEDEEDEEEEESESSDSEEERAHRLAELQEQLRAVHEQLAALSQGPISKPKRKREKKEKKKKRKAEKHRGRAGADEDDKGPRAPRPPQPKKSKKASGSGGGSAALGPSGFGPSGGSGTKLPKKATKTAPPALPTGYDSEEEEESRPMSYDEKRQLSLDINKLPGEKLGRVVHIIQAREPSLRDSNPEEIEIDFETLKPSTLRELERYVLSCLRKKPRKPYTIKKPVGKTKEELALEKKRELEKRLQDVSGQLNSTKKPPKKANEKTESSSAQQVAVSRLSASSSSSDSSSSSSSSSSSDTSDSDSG

SMILES	CDK9 protein levels [1]	BRD2 protein levels [2]	c-Myc protein levels [3]	exposure prior to drug washout sufficient to commit cells to cell death ([4]; MM.1S cells, Annexin V/PI staining) [h]	pro-apoptotic response ([4]; human MM.1S cells, 0.01 μM or 0.05 μM)	transcriptional profile (RNA-Seq), down-regulated transcripts ([5]; dBET6 0.1 or 0.5 μM vs JQ1 0.5 μM, 4 h)	suppression of c-MYC at transcript level ([5]; dBET6 vs JQ1-treated MM.1S cells)	rate of tumor growth increase ([6]; 30 mg/kg, QD, 8d, IP)	increase in overall survival ([6]; 30 mg/kg, QD, 8d, p<0.05) [days]	survival ([6]; subcutaneous MM xenografts)	tumor burden vs vehicle ([6]; subcutaneous MM.1S xenograft)	overall survival [7]	tumor burden measured by BLI vs vehicle [7]	dBET6 sensitivity of pools tolerant to bortezomib or JQ1 [8]	response of patient-derived cells [9]
CC(C)(C)c1cnc(CSc2cnc(NC(=O)C3CCN(CC(=O)NCCOCCOCCOCCNc4cccc5c4C(=O)N(C4CCC(=O)NC4=O)C5=O)CC3)s2)o1 (stereo not drawn) [Thal-SNS-032]	causes degradation of CDK9														
Cc1sc2c(c1C)C(c1ccc(Cl)cc1)=N[C@@H](CC(=O)NCCCCCCCCNC(=O)COc1cccc3c1C(=O)N(C1CCC(=O)NC1=O)C3=O)c1nnc(C)n1-2 (stereo partly drawn) [dBET6]		rapid and robust depletion	rapid and robust depletion	≤ 4	dose- and time-dependent pro-apoptotic response	down-regulation of a larger group of transcripts	more pronounced suppression of c-MYC	significantly suppressed the rate of tumor growth increase	10	prolongation of survival	significantly lower tumor burden	only minimal overall survival advantage	significantly lower tumor burden	do not exhibit resistance to dBET6; also recorded: equal to or greater than treatment-naive cells	dose-dependent response
